Test results as given in ChEMBL document CHEMBL3243951, “Relationship between structure and antineoplastic activity of arylsulfonylhydrazones of 2-formylprydine N-oxide” (J Med Chem, 1978).

Legend:
Sarcoma-180 [1] = test: Antineoplastic activity against mouse sarcoma 180 cells allografted in CD-1 mouse assessed as increase in survival rate at 40 mg/kg, qd administered for 6 days relative to control; type: functional
Sarcoma-180 [2] = test: Antineoplastic activity against mouse sarcoma 180 cells allografted in CD-1 mouse assessed as 50 day survivors at 40 mg/kg, qd administered for 6 days relative to control; type: functional
Mus musculus [3] = test: Toxicity in CD-1 mouse allografted with mouse sarcoma 180 cells assessed as change in body weight at 40 mg/kg, qd administered for 6 days measured during compound treatment (reference value: 30.2%); type: organism-based; parameters: dose 40 mg/kg; conditions: in vivo, 144 h
Sarcoma-180 [4] = test: Antineoplastic activity against mouse sarcoma 180 cells allografted in CD-1 mouse assessed as increase in survival rate at 80 mg/kg, qd administered for 6 days relative to control; type: functional
Mus musculus [5] = test: Toxicity in BDF1 mouse allografted with mouse L1210 cells assessed as change in body weight at 80 mg/kg, qd administered for 6 days measured during compound treatment (reference value: 14.8%); type: organism-based; parameters: dose 80 mg/kg; conditions: in vivo, 144 h
L1210 [6] = test: Antineoplastic activity against mouse L1210 cells allografted in BDF1 mouse assessed as survival time at 80 mg/kg, qd administered for 6 days (reference value: 8.4 days); type: functional
Sarcoma-180 [7] = test: Antineoplastic activity against mouse sarcoma 180 cells allografted in CD-1 mouse assessed as 50 day survivors at 80 mg/kg, qd administered for 6 days relative to control; type: functional
Mus musculus [8] = test: Toxicity in CD-1 mouse allografted with mouse sarcoma 180 cells assessed as change in body weight at 80 mg/kg, qd administered for 6 days measured during compound treatment (reference value: 30.2%); type: organism-based; parameters: dose 80 mg/kg; conditions: in vivo, 144 h
Sarcoma-180 [9] = test: Antineoplastic activity against mouse sarcoma 180 cells allografted in CD-1 mouse assessed as increase in survival rate at 60 mg/kg, qd administered for 6 days relative to control; type: functional
Mus musculus [10] = test: Toxicity in CD-1 mouse allografted with mouse sarcoma 180 cells assessed as change in body weight at 60 mg/kg, qd administered for 6 days measured during compound treatment (reference value: 30.2%); type: organism-based; parameters: dose 60 mg/kg; conditions: in vivo, 144 h
Sarcoma-180 [11] = test: Antineoplastic activity against mouse sarcoma 180 cells allografted in CD-1 mouse assessed as 50 day survivors at 60 mg/kg, qd administered for 6 days relative to control; type: functional
Mus musculus [12] = test: Toxicity in BDF1 mouse allografted with mouse L1210 cells assessed as change in body weight at 100 mg/kg, qd administered for 6 days measured during compound treatment (reference value: 14.8%); type: organism-based; parameters: dose 100 mg/kg; conditions: in vivo, 144 h
L1210 [13] = test: Antineoplastic activity against mouse L1210 cells allografted in BDF1 mouse assessed as survival time at 100 mg/kg, qd administered for 6 days (reference value: 8.4 days); type: functional
Sarcoma-180 [14] = test: Antineoplastic activity against mouse sarcoma 180 cells allografted in CD-1 mouse assessed as 50 day survivors at 20 mg/kg, qd administered for 6 days relative to control; type: functional
Mus musculus [15] = test: Toxicity in CD-1 mouse allografted with mouse sarcoma 180 cells assessed as change in body weight at 20 mg/kg, qd administered for 6 days measured during compound treatment (reference value: 30.2%); type: organism-based; parameters: dose 20 mg/kg; conditions: in vivo, 144 h
Sarcoma-180 [16] = test: Antineoplastic activity against mouse sarcoma 180 cells allografted in CD-1 mouse assessed as increase in survival rate at 20 mg/kg, qd administered for 6 days relative to control; type: functional
Mus musculus [17] = test: Toxicity in BDF1 mouse allografted with mouse L1210 cells assessed as change in body weight at 60 mg/kg, qd administered for 6 days measured during compound treatment (reference value: 14.8%); type: organism-based; parameters: dose 60 mg/kg; conditions: in vivo, 144 h
L1210 [18] = test: Antineoplastic activity against mouse L1210 cells allografted in BDF1 mouse assessed as survival time at 60 mg/kg, qd administered for 6 days (reference value: 8.4 days); type: functional

O=S(=O)(N/N=C/c1cccc[n+]1[O-])c1ccc(Br)cc1
T/C (Sarcoma-180 [1]): 240% | survival at 40 mg/kg (Sarcoma-180 [2]): 0% | Activity (Mus musculus [3]): -3.5%

COc1ccc(S(=O)(=O)N/N=C/c2cccc[n+]2[O-])cc1
T/C (Sarcoma-180 [4]): 356% | Activity (Mus musculus [5]): -4.9% | Survival (L1210 [6]): 19.7 days | survival at 80 mg/kg (Sarcoma-180 [7]): 40% | Activity (Mus musculus [8]): -11.6%

O=[N+]([O-])c1cccc(S(=O)(=O)N/N=C/c2cccc[n+]2[O-])c1
Activity (Mus musculus [5]): -5.4% | Survival (L1210 [6]): 12.4 days | T/C (Sarcoma-180 [9]): 390% | Activity (Mus musculus [10]): -7.5% | survival at 60 mg/kg (Sarcoma-180 [11]): 60%

Cc1ccc(S(=O)(=O)N/N=C/c2cccc[n+]2[O-])cc1
Activity (Mus musculus [5]): -7.4% | Survival (L1210 [6]): 14.3 days | T/C (Sarcoma-180 [9]): 307% | Activity (Mus musculus [10]): -8% | survival at 60 mg/kg (Sarcoma-180 [11]): 0%

Nc1ccc(S(=O)(=O)N/N=C/c2cccc[n+]2[O-])cc1
T/C (Sarcoma-180 [9]): 276% | Activity (Mus musculus [10]): 2.4% | survival at 60 mg/kg (Sarcoma-180 [11]): 0%

Cc1ccccc1S(=O)(=O)N/N=C/c1cccc[n+]1[O-]
Activity (Mus musculus [12]): -11.1% | T/C (Sarcoma-180 [9]): 285% | Survival (L1210 [13]): 19.9 days | Activity (Mus musculus [10]): -1.9% | survival at 60 mg/kg (Sarcoma-180 [11]): 0%

C/C(=N\NS(=O)(=O)c1ccccc1)c1cccc[n+]1[O-]
T/C (Sarcoma-180 [9]): 130% | Activity (Mus musculus [10]): 23.5% | survival at 60 mg/kg (Sarcoma-180 [11]): 0%

O=S(=O)(N/N=C/c1cccc[n+]1[O-])c1cccc2ccccc12
T/C (Sarcoma-180 [9]): 261% | Activity (Mus musculus [10]): -3.4% | survival at 60 mg/kg (Sarcoma-180 [11]): 0%

O=S(=O)(N/N=C/c1cc(N2CCOCC2)cc[n+]1[O-])c1ccccc1
survival at 20 mg/kg (Sarcoma-180 [14]): 0% | Activity (Mus musculus [15]): 1.4% | T/C (Sarcoma-180 [16]): 242%

O=S(=O)(N/N=C/c1cc(Cl)cc[n+]1[O-])c1ccccc1
survival at 20 mg/kg (Sarcoma-180 [14]): 0% | Activity (Mus musculus [15]): 10.8% | T/C (Sarcoma-180 [16]): 156%

O=S(=O)(N/N=C/c1cccc[n+]1[O-])c1ccc2c(c1)Cc1ccccc1-2
T/C (Sarcoma-180 [1]): 276% | survival at 40 mg/kg (Sarcoma-180 [2]): 0% | Activity (Mus musculus [3]): -4.7%

O=S(=O)(N/N=C/c1cccc[n+]1[O-])c1ccc(F)cc1
Activity (Mus musculus [17]): 1.6% | T/C (Sarcoma-180 [9]): 337% | Survival (L1210 [18]): 11.8 days | Activity (Mus musculus [10]): -5.7% | survival at 60 mg/kg (Sarcoma-180 [11]): 20%

O=S(=O)(N/N=C/c1cccc[n+]1[O-])c1ccc2ccccc2c1
T/C (Sarcoma-180 [9]): 308% | Activity (Mus musculus [10]): -1.2% | survival at 60 mg/kg (Sarcoma-180 [11]): 0%

O=[N+]([O-])c1ccc(S(=O)(=O)N/N=C/c2cccc[n+]2[O-])cc1
T/C (Sarcoma-180 [4]): 345% | survival at 80 mg/kg (Sarcoma-180 [7]): 10% | Activity (Mus musculus [8]): -7.1%

O=S(=O)(N/N=C/c1cccc[n+]1[O-])c1ccc(Cl)cc1
T/C (Sarcoma-180 [1]): 260% | survival at 40 mg/kg (Sarcoma-180 [2]): 0% | Activity (Mus musculus [3]): -0.6%

O=C(NNS(=O)(=O)c1ccccc1)c1cccc[n+]1[O-]
T/C (Sarcoma-180 [1]): 107% | survival at 40 mg/kg (Sarcoma-180 [2]): 0% | Activity (Mus musculus [3]): 20.7%

Nc1cccc(S(=O)(=O)N/N=C/c2cccc[n+]2[O-])c1
T/C (Sarcoma-180 [4]): 364% | survival at 80 mg/kg (Sarcoma-180 [7]): 0% | Activity (Mus musculus [8]): -10.3%

O=S(=O)(N/N=C/c1cccc[n+]1[O-])c1cccnc1
T/C (Sarcoma-180 [9]): 276% | Activity (Mus musculus [10]): 0% | survival at 60 mg/kg (Sarcoma-180 [11]): 0%

O=[N+]([O-])c1cc[n+]([O-])c(/C=N/NS(=O)(=O)c2ccccc2)c1
T/C (Sarcoma-180 [9]): 293% | Activity (Mus musculus [10]): -5.4% | survival at 60 mg/kg (Sarcoma-180 [11]): 0%

O=S(=O)(N/N=C/c1cccc[n+]1[O-])c1ccccc1
T/C (Sarcoma-180 [1]): 339% | survival at 40 mg/kg (Sarcoma-180 [2]): 20% | Activity (Mus musculus [5]): -8% | Survival (L1210 [6]): 10.6 days | Activity (Mus musculus [3]): -5.2%
